According to patent US8940911B2, “Squarylated lactones inhibitors for bacterial biofilm formation” (Syracuse University, priority 2012, dated 2015):

Key:
E. coli RP437 = test: Static biofilm dispersion assay (established biofilm, crystal violet); format: cell-based, Escherichia coli; settings: established 24 h E. coli RP437 biofilm, 200 μM, further 24 h
Source text: Apart from the design and development of molecules that display bacterial biofilm inhibition, perhaps the greater challenge is to construct small molecules that will effectively disperse established biofilm. Generally, treatment of chronic microbial infections is commonly hindered by the presence of established biofilms that offer increased resistance to the entry of antibiotics and prevent their mode of action. In fact, bacteria in the biofilms are known to be greater than 1000-fold resistant to microbicides. […] E. coli RP437 strain was allowed to form biofilms over 24 h in the absence of any inhibitor. […]
An overnight culture of E. coli RP437 grown in LB media (OD600 of 1.0) containing streptomycin (10 μg/mL) was subsequently sub-cultured to an OD600 of 0.03-0.04 (1:100 dilution with LB media). […] Finally, the biofilm formed was quantified by transferring 100 μL of the ethanol solution into a fresh polystyrene microtiter dish that was subsequently read by an absorbance plate reader (A600). After elimination of background absorbance, the percentage dispersion was calculated by dividing the amount of absorbed crystal violet in wells that contained the synthetic compound by the amount of absorbed crystal violet in wells that contained bacteria only (control). […]

[1] = system: DsRed-express-labeled E. coli RP437; test: Confocal imaging of E. coli biofilms on stainless steel coupons (COMSTAT); format: cell-based, Escherichia coli; settings: 200 μM, 24 h at 37° C., CLSM/COMSTAT
Protocol: The effects of SHLs upon the bacterial biofilm were examined; more specifically, the effect of SHLs upon the biofilm architecture. […] These studies were conducted by static biofilm assays employing crystal violet staining that indicates the total biomass that resides within a biofilm but provides no indication regarding the topology of the biofilms. To elucidate the topological features assumed by the E. coli RP437 biofilm in the presence of SHLs and BF8 48, studies of biofilms consisting of DsRed-express-labeled E. coli RP437 that is fluorescent and can be easily visualized by confocal laser scanning microscopy (CLSM) were performed. […] Further, the stacked images in vinyl-SHL 3 indicating the maximum thickness of the biofilm is considerably smaller than the biofilms in BF8 48 and the untreated E. coli samples. We developed the biofilms consisting of DsRed-express-labeled E. coli on stainless steel coupons (316 L, 1 in×1 in.) for 24 h at 37° C. that were treated with BF8 48 or SHLs or were left untreated. All the samples were analyzed with CLSM (see FIG. 8) and the maximum thickness of biofilms calculated using the COMSTAT software. […] Moreover, butyl-SHL 8 and butoxy-SCPA 46 reduce the biofilm thickness by 38% and 27%, respectively.
An overnight culture of E. coli RP437 pRSH103 grown in LB media (OD600 of 1.0) containing tetracycline (3 μg/mL) was subsequently sub-cultured to an OD600 of 0.04 (1:100 dilution with LB media). To each well in the solvent resistant polypropylene or polystyrene-based 24-well microtiter plates was added 200 μM synthetic molecules in DMSO solution respectively. In addition, to each of the wells containing the known concentrations of synthetic molecules was added 2 mL of the sub-cultured bacteria and the contents in each well were gently mixed. […] The fluorescent emission was detected with a LP 560 nm emission filter. The coupons were gently placed upside down on a microscope cover glass (24×60 mm, No. 2, VWR International LLC, West Chester, Pa., USA) and analyzed with CLSM. […]

| SMILES | biofilm dispersal (in words) (E. coli RP437) | reduction of the maximum thickness of biofilm [1] [%] | biofilm dispersal ability (E. coli RP437) [%] |
| --- | --- | --- | --- |
| C=Cc1c(NC2CCOC2=O)c(=O)c1=O (stereo not shown) [vinyl-SHL 3] | a quarter of biofilm being dispersed | – | – |
| CCCCOc1c(NC2CCCC2)c(=O)c1=O [butoxy-SCPA 46] | – | 27 | – |
| CC1=C(Br)/C(=C/Br)OC1=O [BF8 48, reference compound] | – | 17 | 39 |
